These are literature values, as cited in patent US20220372042A1, “CONDENSED HETEROCYCLES AS BCL-2 INHIBITORS” (Newave Pharmaceutical Inc., priority 2019, published 2022).

What is called Ki is a measure of affinity in units of concentration, obtained from inhibition or displacement. For orientation: IC50 means the concentration that inhibits the measured activity by half. By TGI is commonly meant how far tumour growth fell short of that in controls. The EC50 is the concentration needed to bring the measured effect to its halfway point.

In one data set the target is T1, Bcl-w (Homo sapiens, UniProt Q92843).
T1 sequence (Q92843 1-193): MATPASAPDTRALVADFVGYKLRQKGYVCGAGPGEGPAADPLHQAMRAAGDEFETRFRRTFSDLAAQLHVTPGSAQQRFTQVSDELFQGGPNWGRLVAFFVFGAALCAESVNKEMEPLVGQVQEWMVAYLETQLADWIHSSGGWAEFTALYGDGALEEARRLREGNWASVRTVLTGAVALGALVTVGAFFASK

A further data set relates to SCLC H146 cell line. The conditions noted are these: read-out: IC50 against SCLC H146 cell line.
The subject of another data set is H345 xenograft. To be noted: 100 mg/kg/day, H345 xenograft model.
For data set [1], the system named is xenograft models of small-cell lung cancer and acute lymphoblastic leukemia. The conditions noted are these: single agent.
In a further data set the test system is circulating platelets. The conditions noted are these: patients, clinical trial.
For the next data set, the system named is CLL. To be noted: average; read-out: average EC50 apoptosis in CLL.
The test system of a further data set is RS4; 11 xenografts. To be noted: single dose of 100 mg/kg.
For data set [2], the system named is DoHH2, Granta-519 xenografts. To be noted: single agent or in combination with Bendamustine and other agents.
The test system of data set [3] is CLL who have 17p deletion. To be noted: CLL with 17p deletion.
A further data set has as its system established tumors. The conditions noted are these: mouse, in vivo.
The conditions of data set [4]: in vivo.

`CC1(C)CCC(c2ccc(Cl)cc2)=C(CN2CCN(c3ccc(C(=O)NS(=O)(=O)c4ccc(N[C@H](CCN5CCOCC5)CSc5ccccc5)c(S(=O)(=O)C(F)(F)F)c4)cc3)CC2)C1` [ABT-263]: the Ki on Bcl-w is not above 1 nM. Besides, the 50% inhibitory concentration (IC50) with SCLC H146 cell line is 110 nM. For the same compound, in the data set on H345 xenograft, the TGI was 80% and the “treated tumors indicating at least a 50% reduction in tumor volume” value was 20%. Further, the “tumor response after oral administration alone” value in data set [1] is given as “complete tumor regressions”. In the data set with circulating platelets, the “number of circulating platelets” value is listed as “rapid, concentration-dependent decrease”.
In the case of `CC1(C)CCC(CN2CCN(c3ccc(C(=O)NS(=O)(=O)c4ccc(NCC5CCOCC5)c([N+](=O)[O-])c4)c(Oc4cnc5[nH]ccc5c4)c3)CC2)=C(c2ccc(Cl)cc2)C1` [ABT-199], the EC50 with RS4; 11 cells was 8 nM; in the data set with CLL, 3 nM. Besides, the “maximal tumor growth inhibition” value with RS4; 11 xenografts is given as 95%. In addition, the tumor growth delay with RS4; 11 xenografts was 152%. The xenograft growth entry in data set [2] is given as “inhibits xenograft growth”. Also, in [3], the clinical efficacy entry was “highly efficacious”.
Regarding `CN(C)CC[C@H](CSc1ccccc1)Nc1ccc(S(=O)(=O)NC(=O)c2ccc(N3CCN(Cc4ccccc4-c4ccc(Cl)cc4)CC3)cc2)cc1[N+](=O)[O-]` [ABT-737], the aqueous solubility entry was “low aqueous solubility”. Moreover, the “efficacy in animal models” value in the data set on established tumors was “improves survival, causes regression of established tumors, and produces cures in a high percentage of the mice”. For the same compound, the oral bioavailability result in data set [4] was “not orally bioavailable”.
